Source: the NIST ThermoML archive (doi:10.1021/je900738e)
± gives the expanded uncertainty stated by the source.

Conditions: Liquid, Manometric method

For `OCC(F)(F)F` [2,2,2-trifluoroethanol], the “vapor or sublimation pressure” value (283.15 K) was 3.96 ± 0.22 kPa, the “vapor or sublimation pressure” value (293.15 K) was 7.25 ± 0.22 kPa and the “vapor or sublimation pressure” value (303.15 K) was 12.82 ± 0.23 kPa. The “vapor or sublimation pressure” value (313.15 K) was 21.83 ± 0.26 kPa, the “vapor or sublimation pressure” value (323.15 K) was 36.1 ± 0.3 kPa and the “vapor or sublimation pressure” value (333.15 K) was 57.08 ± 0.38 kPa. The “vapor or sublimation pressure” value (343.15 K) was 87.31 ± 0.46 kPa and the “vapor or sublimation pressure” value (346.65 K) was 100.8 ± 0.52 kPa.

For `O` [water], the “vapor or sublimation pressure” value (287.15 K) was 1.64 ± 0.21 kPa, the “vapor or sublimation pressure” value (296.35 K) was 2.81 ± 0.22 kPa and the “vapor or sublimation pressure” value (305.35 K) was 4.74 ± 0.22 kPa. The “vapor or sublimation pressure” value (313.45 K) was 7.51 ± 0.23 kPa, the “vapor or sublimation pressure” value (323.05 K) was 12.26 ± 0.26 kPa and the “vapor or sublimation pressure” value (332.95 K) was 19.69 ± 0.32 kPa. For the same compound, the “vapor or sublimation pressure” value (343.05 K) was 30.94 ± 0.42 kPa, the “vapor or sublimation pressure” value (352.85 K) was 46.73 ± 0.57 kPa and the “vapor or sublimation pressure” value (363.05 K) was 69.75 ± 0.8 kPa. For the same compound, the “vapor or sublimation pressure” value (372.85 K) was 100.32 ± 1.1 kPa.
